Molecules are shown by their SMILES. Like-named read-outs stand apart in the source and are kept apart here.

The term EC50 denotes the concentration at which the effect is half-maximal. The IC50 is the concentration that inhibits the measured activity by half. Read a low IC50 as inhibition by little substance. A word on the Kd: it is the constant that tells how readily two partners part at equilibrium. High values mean weaker binding, low ones tighter binding.

Test [1] deals with T1, Wolbachia LeuRS (full-length) (Wolbachia sp. subsp. Brugia malayi, UniProt Q5GS31). Put plainly: Reactivation rate (half-life of inhibition) of Wolbachia LeuRS after dilution of inhibitor complex. It is filed as biochemical. The note with it: time for LeuRS to recover 50% of its activity after 200-fold dilution. As for the experimental part: Wolbachianinfection model.
All reactions were performed in […]

A short description of test [2]: ITC titration of compound into AMP in the absence of protein (adduct formation). It is filed as binding. The note with it: no protein. As for the experimental part: To quantitatively assess the formation of the adenosine-based inhibitor adducts, we performed ITC experiments by titrating Cmpd9 into AMP in the absence of protein (fig. S3D). […]
spectra of AMP/ATP alone or in equimolar (5 mM) mixtures with Cmpd6. A zoomed-in view on the aromatic NMR signals of AMP/ATP is shown. Upon addition of the compounds, the NMR signals of the aromatic groups of AMP/ATP split into an additional two peaks corresponding to the two adducts formed. (C) Spontaneous cyclization of Cmpd6 with ATP/AMP leading to the formation of two diastereomer adducts based on the pseudo symmetry of the ribose. For convenience, adducts with an exo-ribose in panel c) are denote as ty pe “a”, and those with endo-ribose as adducts of type “b”. (D) Isothermal Titration Calorimetry experiment with Cmpd9 injected into AMP leading to the formation of adducts by Cmpd9.
The experiment was performed in triplicate.
Background: In ITC the heat of successive injections is recorded.

For test [3], the system named is W. pipientis (wAlbB) in C6/36 cells. Put plainly: A·WOL anti-Wolbachia screening assay in infected C6/36 (wAlbB) insect cells. The test is classed as cell-based, Wolbachia pipientis. To be noted: for EC50: Wolbachia pipientis, 168 h, 7 days. From the text: To identify active compounds against Wolbachia, we carried out a high-throughput screening assay by testing a library of 202 benzoxaborole compounds in a host-cell model of Wolbachia infection ([5], [18]), which yielded an 18% hit rate. […] The screening in cells was combined with activity experiments (aminoacylation) performed with recombinant full-length Wolbachia LeuRS protein, which were used to calculate the half-maximum inhibitory concentration (IC50) for the most interesting compounds identified in the cell screening. Thus, this yielded compounds with both good anti-Wolbachian in vitro activity and in vivo efficacy, with representative compounds shown in table S1. […] Moreover, the potent in vitro activity of Cmpd9 translated in very good in cellulo efficacy (EC50 = 90 nM) in the Wolbachia infection model (Fig. 1, D and E, and table S1).
The efficacy of compounds, determined as EC50 against Wolbachia in infected host cells, was determined through the anti-Wolbachia consortium’s (A·WOL) routine screening assay as described previously ([18], [27], [29]). […] Compounds were incubated for 7 days with 2000 cells per well on a 384-well plate (CellCarrier-384 Ultra, PerkinElmer) in Leibovitz media (Life Technologies) supplemented with 20% fetal bovine serum (FBS, Thermo Fisher Scientific), 2% tryptose phosphate broth (Sigma-Aldrich), and 1% nonessential amino acids (Sigma-Aldrich). The endpoint readout utilized DNA staining of both the host cell nuclei and intracellular Wolbachia (SYTO 11) combined with a high content imaging system (Operetta, PerkinElmer) and analyzed using the associated Harmony software through a cytoplasm texture analysis. Stock solutions at 10 mM of chemical compounds were prepared in dimethyl sulfoxide (DMSO). Chemical compounds were provided by chemical manufactures (ChemPartner and Anacor Pharmaceuticals), and quality control was verified by NMR spectroscopy (^1H-NMR) and liquid chromatography coupled to mass spectrometry. […]
†The half-maximum effective concentrations (EC50) were calculated in cells infected with Wolbachia […]

Test [4] deals with Wolbachia LeuRS (Wolbachia sp. subsp. Brugia malayi, UniProt Q5GS31). To be noted: ITC; for binding to Wolbachia LeuRS (in words): in the absence of AMP; for -T∆S / ∆G / ∆H: in the presence of AMP.
From the text: We designed constructs of the Wolbachia LeuRS editing domain (fig. S1), which bear the putative drug-binding pocket, for expression and purification of recombinant proteins. Two constructs gave soluble and well-behaving proteins that were used for biophysical and structural studies: a construct encoding for residues 219 to 418, herein named Wolbachia LeuRS; and another construct named Wolbachia LeuRS D1, for which part of an insertion specific to Wolbachia LeuRS (herein denoted as i1) and predicted to be highly disordered was partially deleted (354 to 377) (fig. S1). […] To quantitatively assess the affinity of these compounds to Wolbachia LeuRS, isothermal titration calorimetry (ITC) experiments were carried out.
ITC measurements were performed on a MicroCal iTC200 (GE Healthcare, PA) at 25°C. Wolbachia LeuRS samples were previously dialyzed into the ITC buffer 50 mM Hepes-KOH, pH 7.5, 30 mM KCl, 30 mM MgCl2, and 5 mM β-mercaptoethanol and adjusted to a final concentration of 70 μM. […] A typical ITC experiment consisted of 26 injections of 1.5 μl every 180 s at a stirring speed of 750 rpm. The raw data were processed using MicroCal PEAQ-ITC (v. 1.0.0.1259, Malvern) and Microcal Origin for ITC (v. 7.0).
Thermodynamic parameters were calculated from fitting the binding isotherms to a one-site binding site and
independent model. Experiments were done at least in duplicates.
All the experiments were performed in the presence of AMP, which acts as a surrogate of ATP or tRNALeu
terminal adenosine (Ade76).
Test [5] concerns the target T1, Wolbachia LeuRS (full-length). Kind of test: biochemical.
Method: The full-length Wolbachia LeuRS construct corresponds to residues 1 to 865 of Wolbachia sp. Brugia malayi (Uniprot Q5GS31).
The IC50 values were calculated using a similar approach as described earlier ([19], [20]). Briefly, Wolbachia full-length LeuRS, total E. coli tRNA crude extract (Roche), and compounds were preincubated for 20 min in 50 mM Hepes-KOH (pH 8.0), 30 mM MgCl2, 30 mM KCl, 0.02% (wt/vol) bovine serum albumin, and 1 mM dithiothreitol with 20 μM [^14C]leucine (306 mCi/mmol; PerkinElmer) at 30°C. Reactions were started by the addition of 4 mM ATP and, at specific times, tRNA was precipitated by the addition of 10% (w/v) trichloroacetic acid (TCA), recovered by filtration (Millipore Multiscreen; MSHAN4B50), washed with 5% TCA (w/v), and counted by a liquid scintillation counter (Wallac). […] The reactivation rates (T½) were determined by measuring the time required for Wolbachia LeuRS to recover 50% of its activity. […] LeuRS inhibitor complexes were then diluted 200-fold, and enzyme activity was determined at various time intervals, as described before. Compound reactivation rates were determined by fitting the LeuRS activity reactivation curves to a one-phase exponential decay model (GraphPad Prism).
*The half-maximum inhibitory concentrations (IC50) and half-life inhibition times (T ½) were calculated from aminoacylation assays with recombinant protein and tRNA (see methods). […]
For test [6], the target named is Wolbachia LeuRS (residues 219 to 418) (Wolbachia sp. subsp. Brugia malayi, UniProt Q5GS31). Put plainly: Thermal shift assay (DSF), Wolbachia LeuRS editing domain. It is filed as binding. The note with it: wild-type Wolbachia LeuRS construct, in the presence of AMP, vs free protein. As for the experimental part: The thermal shift assays (TSAs) were performed using a qPCR CFX96 (Bio-Rad) with the FRET scan mode. Samples were prepared in a TSA buffer containing 50 mM Hepes (pH 7.5) and 150 mM NaCl. Each well contained 2 μl of samples as prepared for the crystallization trials, 18 μl of TSA buffer, and 20 μl of 10× SYPRO orange (S6650, Thermo Fisher Scientific).
Chain of Wolbachia LeuRS (residues 219 to 418) (Q5GS31 219-418): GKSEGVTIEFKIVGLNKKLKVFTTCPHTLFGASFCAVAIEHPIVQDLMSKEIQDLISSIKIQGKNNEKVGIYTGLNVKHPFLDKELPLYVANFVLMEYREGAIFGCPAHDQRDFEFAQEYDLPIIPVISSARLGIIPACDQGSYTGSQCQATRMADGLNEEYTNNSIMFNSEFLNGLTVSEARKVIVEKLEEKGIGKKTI

Chain of Wolbachia LeuRS (Q5GS31 219-418): as above
T1 sequence (Q5GS31 whole entry): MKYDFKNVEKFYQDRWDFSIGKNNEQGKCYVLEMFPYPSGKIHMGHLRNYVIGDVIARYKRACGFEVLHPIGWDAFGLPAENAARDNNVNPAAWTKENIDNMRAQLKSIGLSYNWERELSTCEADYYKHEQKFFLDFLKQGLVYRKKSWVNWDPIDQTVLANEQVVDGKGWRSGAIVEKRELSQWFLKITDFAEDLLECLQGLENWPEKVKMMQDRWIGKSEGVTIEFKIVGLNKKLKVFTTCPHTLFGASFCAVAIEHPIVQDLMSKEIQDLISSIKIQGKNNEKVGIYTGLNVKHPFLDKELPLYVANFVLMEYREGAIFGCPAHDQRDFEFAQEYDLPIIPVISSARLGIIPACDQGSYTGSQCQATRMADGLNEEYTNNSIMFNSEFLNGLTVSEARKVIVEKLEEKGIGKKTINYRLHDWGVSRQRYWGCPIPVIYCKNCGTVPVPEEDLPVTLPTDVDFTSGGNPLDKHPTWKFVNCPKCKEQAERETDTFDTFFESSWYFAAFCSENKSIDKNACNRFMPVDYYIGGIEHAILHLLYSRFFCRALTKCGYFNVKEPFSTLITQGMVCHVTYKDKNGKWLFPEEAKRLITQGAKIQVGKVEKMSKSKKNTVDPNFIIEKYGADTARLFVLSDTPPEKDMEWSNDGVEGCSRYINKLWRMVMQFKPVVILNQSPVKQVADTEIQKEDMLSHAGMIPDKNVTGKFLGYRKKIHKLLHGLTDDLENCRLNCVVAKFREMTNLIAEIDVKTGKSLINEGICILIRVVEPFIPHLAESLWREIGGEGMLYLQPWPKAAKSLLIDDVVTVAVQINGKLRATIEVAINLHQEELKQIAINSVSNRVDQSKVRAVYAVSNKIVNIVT

Consider `NC[C@H]1OB(O)c2c(OCCC(=O)Nc3nccs3)ccc(Br)c21` [Cmpd6], for which, in test [1], the “T ½ (half-life inhibition time, reactivation rate)” value is 0.0183 h. Further, in test [2] (compared with Cmpd9 into AMP), the “binding isotherm with AMP (in words)” value is reported as “equivalent binding isotherm”. For the same compound, the EC50 in test [3] (C6/36 (wAlbB) cells, read-out: Efficacy in Infected Host EC50) was > 10 µM. In test [4], the “binding to Wolbachia LeuRS (in words)” value is listed as “did not bind”, the “-T∆S” value was -4.48 kcal/mol, the “∆G” value is -10.08 kcal/mol and the “∆H” value was -5.60 kcal/mol. For the same compound, the IC50 in test [5] is 0.06 µM. Moreover, the “increase of the melting temperature ∆Tm” value in test [6] is 13 °C.
In the case of `CN(CCCOc1ccc(Br)c2c1B(O)O[C@@H]2CN)Cc1ccccc1` [Cmpd9], the “T ½ (half-life inhibition time, reactivation rate)” value in test [1] came out at 3.77 h. Moreover, the Kd in test [2] (compound titrated into AMP, one-site binding model) worked out at 1000 µM. For the same compound, in test [3] (9 μM for 7 days, C6/36 (wAlbB)), the “Wolbachia load in host cells (in words)” value is “Reduction of Wolbachia load”. For the same compound, the EC50 in test [3] (Wolbachia infection model, C6/36 (wAlbB), read-out: in cellulo efficacy EC50) was 0.09 µM. Besides, in test [4], the “binding to Wolbachia LeuRS (in words)” value is given as “did not bind”, the “-T∆S” value is -5.31 kcal/mol, the “∆G” value was -11.24 kcal/mol and the “∆H” value is -5.93 kcal/mol. The compound further returned an IC50 in test [5] of 0.19 µM. Further, in test [6], the “increase of the melting temperature ∆Tm” value stood at 13 °C.
Regarding `CCCC(N)C(=O)NC1C(O)C(CO)OC1n1cnc2c(N)ncnc21` (stereo not shown) [Nva2AA, reference compound], in test [4], the “-T∆S” value came out at 1.79 kcal/mol, the “∆G” value was -5.94 kcal/mol and the “∆H” value is -7.73 kcal/mol.

The record behind these values is paper PMC11235159, “Targeting a microbiota Wolbachian aminoacyl-tRNA synthetase to block its pathogenic host” (Science Advances, 2024).
